# In ChEMBL document CHEMBL2029261 (Bioorg Med Chem Lett, 2012):
# Active and inactive are the calls of the source. No cut-off for these calls is given here.
# Assays:
# [1] = Apparent binding affinity to amyloid beta (1 to 40) aggregates; settings: read-out: Kd(app)
# [2] = Binding affinity to amyloid beta (1 to 40) aggregates assessed as change in fluorescence intensity at 10 uM relative to control
# [3] = biological target: Amyloid-beta precursor protein (Homo sapiens) (UniProt P05067); assay: Binding affinity to unlabeled amyloid beta (1 to 42) expressed in human SH-SY5Y cells at 10 uM after 10 mins thioflavin staining-based by fluorescence microscopic analysis
# Mus musculus [4] = species: Mus musculus; assay: Binding affinity to amyloid beta plaque in mouse brain tissue by thioflavin staining-based fluorescence analysis
# Mus musculus [5] = species: Mus musculus; assay: Binding affinity to amyloid beta plaque in APP/PS1 transgenic mouse brain tissue by thioflavin staining-based fluorescence analysis
# Amyloid-beta precursor protein (Homo sapiens), sequence (P05067 whole entry): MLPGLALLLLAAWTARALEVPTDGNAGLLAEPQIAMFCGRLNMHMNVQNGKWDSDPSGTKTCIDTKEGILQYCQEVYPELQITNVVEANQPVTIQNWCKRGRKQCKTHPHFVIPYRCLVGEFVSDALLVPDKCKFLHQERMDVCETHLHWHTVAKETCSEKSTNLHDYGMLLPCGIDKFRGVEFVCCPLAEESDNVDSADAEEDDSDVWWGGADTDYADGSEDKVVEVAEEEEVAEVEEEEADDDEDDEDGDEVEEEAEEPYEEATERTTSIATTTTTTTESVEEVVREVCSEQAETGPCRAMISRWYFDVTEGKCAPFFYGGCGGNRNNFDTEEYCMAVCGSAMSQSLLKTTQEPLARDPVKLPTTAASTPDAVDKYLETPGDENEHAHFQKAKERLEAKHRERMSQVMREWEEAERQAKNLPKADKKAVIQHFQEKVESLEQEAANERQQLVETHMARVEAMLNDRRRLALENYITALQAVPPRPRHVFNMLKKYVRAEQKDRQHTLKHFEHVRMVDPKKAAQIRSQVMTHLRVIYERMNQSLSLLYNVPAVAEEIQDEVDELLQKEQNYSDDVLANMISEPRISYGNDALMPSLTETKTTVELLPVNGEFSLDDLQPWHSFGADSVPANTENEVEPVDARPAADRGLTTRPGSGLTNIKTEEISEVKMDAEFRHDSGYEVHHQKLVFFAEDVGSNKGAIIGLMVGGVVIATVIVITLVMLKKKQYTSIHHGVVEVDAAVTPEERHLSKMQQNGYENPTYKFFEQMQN
Kd [1] [µM],fold change (FC) [2],Compound,further results
17.6,11.7,COc1cc(OC)c(/C=C/n2ncc(Cl)c(Cl)c2=O)c(OC)c1,
,2.07,COC(=O)c1ccc(/C=C/n2ncc(Cl)c(Cl)c2=O)cc1,
,3.52,COc1ccc(/C=C/n2ncc(Cl)c(Cl)c2=O)cc1OC,
,1.92,O=c1c(Cl)c(Cl)cnn1/C=C/c1ccc(-c2ccccc2)cc1,
1.84,40.8,CN(C)c1ccc(/C=C/n2ncc(Cl)c(Cl)c2=O)cc1,Activity [3]: Active; Activity (Mus musculus [4]): inactive; Activity (Mus musculus [5]): Active
,4.12,O=c1c(Cl)c(Cl)cnn1/C=C/c1ccccc1[N+](=O)[O-],
,2.94,N#Cc1ccc(/C=C/n2ncc(Cl)c(Cl)c2=O)cc1,
,3.42,COc1ccc(OC)c(/C=C/n2ncc(Cl)c(Cl)c2=O)c1,
,2.24,O=c1c(Cl)c(Cl)cnn1/C=C/c1ccc([N+](=O)[O-])cc1,
,4.72,O=c1c(Cl)c(Cl)cnn1/C=C/c1ccccc1,
,8.24,COc1ccccc1/C=C/n1ncc(Cl)c(Cl)c1=O,
,2.04,O=c1c(Cl)c(Cl)cnn1/C=C/c1ccc(/C=C\c2ccccc2)cc1,
4.24,26.8,COc1ccc(/C=C/n2ncc(Cl)c(Cl)c2=O)c(OC)c1OC,
,5.37,COc1cc(/C=C/n2ncc(Cl)c(Cl)c2=O)cc(OC)c1,
3.48,11.1,COc1cccc(/C=C/n2ncc(Cl)c(Cl)c2=O)c1,
,2.12,O=c1c(Cl)c(Cl)cnn1/C=C/c1ccc(Br)cc1,
5.03,11.5,COc1ccc(/C=C/n2ncc(Cl)c(Cl)c2=O)c(OC)c1,
,2.12,O=c1c(Cl)c(Cl)cnn1/C=C/c1cccc([N+](=O)[O-])c1,
2.95,12.2,Nc1ccc(/C=C/n2ncc(Cl)c(Cl)c2=O)cc1,
8.52,15.3,COc1cccc(/C=C/n2ncc(Cl)c(Cl)c2=O)c1OC,
,4.53,COc1cccc(OC)c1/C=C/n1ncc(Cl)c(Cl)c1=O,
,2.81,Cc1ccc(/C=C/n2ncc(Cl)c(Cl)c2=O)cc1,
2.57,19.8,COc1ccc(/C=C/n2ncc(Cl)c(Cl)c2=O)cc1,
,,Cc1ccc2c(c1)sc(-c1ccc(N(C)C)cc1)[n+]2C,Activity (Mus musculus [4]): inactive
,3.03,O=c1c(Cl)c(Cl)cnn1/C=C/c1ccc(Cl)cc1,
4.14,,COc1cc(/C=C/n2ncc(Cl)c(Cl)c2=O)cc(OC)c1OC,FC [2]: 26.1
,5.93,O=c1c(Cl)c(Cl)cnn1/C=C/c1ccc(F)cc1,
,3.95,COc1cc(OC)c(OC)cc1/C=C/n1ncc(Cl)c(Cl)c1=O,
,5.26,O=c1c(Cl)c(Cl)cnn1/C=C/c1ccc(I)cc1,
